What was measured:
[1] = target: T1, Serine/threonine-protein kinase Chk1 (Homo sapiens, UniProt O14757); assay: CHK1 Inhibition Assay; details: pH 7.4; 22 °C
T1 sequence (O14757 whole entry): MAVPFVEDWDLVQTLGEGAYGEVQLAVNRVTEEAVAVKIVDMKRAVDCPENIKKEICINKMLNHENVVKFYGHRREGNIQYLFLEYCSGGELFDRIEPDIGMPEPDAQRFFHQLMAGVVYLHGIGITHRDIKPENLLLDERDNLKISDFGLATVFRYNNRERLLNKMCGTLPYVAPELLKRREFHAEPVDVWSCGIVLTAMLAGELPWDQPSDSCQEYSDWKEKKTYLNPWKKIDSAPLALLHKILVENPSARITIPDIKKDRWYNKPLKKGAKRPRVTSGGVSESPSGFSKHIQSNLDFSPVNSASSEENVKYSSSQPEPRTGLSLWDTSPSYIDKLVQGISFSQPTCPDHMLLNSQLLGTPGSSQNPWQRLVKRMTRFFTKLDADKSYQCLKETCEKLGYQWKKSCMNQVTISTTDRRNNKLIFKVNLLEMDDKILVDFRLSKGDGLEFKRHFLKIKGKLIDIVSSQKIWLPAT
Text: The inhibitors reported in this study bind to CHK1 according to a general mechanism illustrated in Scheme 1 where E, S, and I stand for enzyme, substrate and inhibitor using Caliper LC-3000 instrument (Caliper Life Science).

[2] = target: T1, Serine/threonine-protein kinase Chk1; assay: Surface Plasmon Resonance BindingAssay; details: pH 8; 20 °C
Procedure: Surface plasmon resonance (SPR) biosensor binding studies were conducted using a Biacore 3000 instrument (GE Healtchare).

| Compound | Ki [1] | Ki [2] |
| --- | --- | --- |
| O=C1NN=Cc2c(C(=O)N3C[C@@H](O)[C@@H](O)C3)[nH]c3cc(NC(=O)C4C[C@H]4c4ccccc4)cc1c23 (some centres undefined) [CHK1 compound 1] | 1.75 nM | 5.14 nM |
| CC(C)(C)c1ccc(C(=O)NC(=O)Nc2cccc3ccccc23)cc1[N+](=O)O [CHK1 compound 3] | 146 nM | 290 nM |

From BindingDB's records for doi:10.1021/bi900258v (Pfizer, 2009)
